The values that follow come from US20120202856A1, “SUBSTITUTED BENZIMDAZOLE DERIVATIVES USEFUL AS TRPM8 RECEPTOR MODULATORS” (priority 2011, published 2012).

Where “and” joins values, the source holds several entries; their conditions need not be identical. Equal entries are not always repeated. Structures can show the parent of a compound that is named as a salt. Where two headings read alike, the source gives them in different places.

In this test the target is T1, canine TRPM8 (Canis lupus familiaris, UniProt Q1A7N1).
T1 construct: expressed in transfected cells
T1 sequence (Q1A7N1 1-1104): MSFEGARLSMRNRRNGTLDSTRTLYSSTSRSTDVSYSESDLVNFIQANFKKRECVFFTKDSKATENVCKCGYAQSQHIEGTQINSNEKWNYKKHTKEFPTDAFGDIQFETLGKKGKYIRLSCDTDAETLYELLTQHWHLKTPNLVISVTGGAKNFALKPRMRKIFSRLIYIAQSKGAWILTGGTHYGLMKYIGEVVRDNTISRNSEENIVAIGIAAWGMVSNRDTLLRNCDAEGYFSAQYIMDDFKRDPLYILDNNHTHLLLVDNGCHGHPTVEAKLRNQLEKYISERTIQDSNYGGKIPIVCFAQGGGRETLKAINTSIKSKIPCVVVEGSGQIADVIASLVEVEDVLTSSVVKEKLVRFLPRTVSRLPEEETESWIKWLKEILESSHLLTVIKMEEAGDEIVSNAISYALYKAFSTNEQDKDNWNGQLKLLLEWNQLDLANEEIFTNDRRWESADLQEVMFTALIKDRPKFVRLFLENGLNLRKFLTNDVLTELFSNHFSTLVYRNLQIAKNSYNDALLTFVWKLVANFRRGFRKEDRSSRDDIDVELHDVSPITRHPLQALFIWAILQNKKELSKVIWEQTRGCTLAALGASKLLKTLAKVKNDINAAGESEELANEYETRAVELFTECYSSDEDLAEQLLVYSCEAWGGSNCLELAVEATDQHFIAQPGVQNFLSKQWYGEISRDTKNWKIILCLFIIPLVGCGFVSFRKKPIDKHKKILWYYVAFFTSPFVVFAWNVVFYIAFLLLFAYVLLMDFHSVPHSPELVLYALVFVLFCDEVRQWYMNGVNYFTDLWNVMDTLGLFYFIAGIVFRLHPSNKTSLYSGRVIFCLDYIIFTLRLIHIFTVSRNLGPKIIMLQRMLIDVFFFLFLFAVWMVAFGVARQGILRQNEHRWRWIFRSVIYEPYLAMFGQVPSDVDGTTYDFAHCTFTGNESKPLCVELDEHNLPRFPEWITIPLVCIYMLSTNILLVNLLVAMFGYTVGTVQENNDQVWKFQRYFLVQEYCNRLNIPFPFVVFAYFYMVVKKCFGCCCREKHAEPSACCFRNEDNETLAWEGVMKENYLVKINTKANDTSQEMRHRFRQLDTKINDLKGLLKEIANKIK
As to the kind of experiment: In Vitro Canine TRPM8 Functional Assay (intracellular Ca2+ fluorescence, icilin activation, HEK293 cells). Conditions: for IC50: HEK293 cells expressing canine TRPM8, icilin activation, individually measured values (batches/salt forms), read-out: IC50 (nM), in vitro TRP M8 Activity. The class given is cell-based. On the procedure:
The changes in fluorescent signal were monitored by a fluorescence plate reader, either a FLIPR™ (Molecular Devices) or FDSS (Hamamatsu). […] Cells were maintained in 5% CO2 at 37° C. At 24 hr prior to assay, cells were seeded in black wall, clear-base poly-D-lysine coated 384-well plates (BD Biosciences, NJ, USA) at a density of 5,000 cells per well in culture medium and grown overnight in 5% CO2 at 37° C. On assay day, growth media was removed, and cells were loaded with Calcium 3 Dye (Molecular Devices) for 35 min at 37° C., under 5% CO2 and then incubated for 25 min at room temperature and atmosphere. Subsequently, cells were tested for agonist-induced increases in intracellular Ca^2+ levels using FLIPR™ or FDSS. […] Maximal fluorescence intensity (FI) achieved upon addition of icilin was exported from the FLIPR™ or FDSS software and further analyzed using GraphPad Prism 3.02 (Graph Pad Software Inc., CA, U.S.A.). Basal FI was subtracted prior to normalizing data to percent of maximal response. Curves were generated using the average of quadruplicate wells for each data point using nonlinear regression of either sigmoidal dose response or sigmoidal dose response (variable slope). Finally, IC50 values were calculated with the best-fit curve determined by GraphPad Prism

Setting [1] is: HEK293, 0.2 μM test compound, individually measured values, read-out: % Inh (%) @0.2 μM, in vitro TRP M8 Activity.

The term IC50 denotes the point on the concentration scale where inhibition reaches its midpoint. Regarding `Cn1nc(C(C)(C)C)c(Cl)c1-c1nc2cc(-c3ccccc3C(F)(F)F)cc(C(F)(F)F)c2[nH]1` [Compound 129, 2-(5-tert-Butyl-4-chloro-2-methyl-2H-pyrazol-3-yl)-7-trifluoromethyl-5-(2-trifluoromethyl-phenyl)-1H-benzimidazole hydrochloride], the IC50 was 6.2 nM and 4.1 nM. Further, the inhibition at 0.2 µM under setting [1] was determined as 99%.

As for `Cc1oc(C(C)(C)C)nc1-c1nc2cc(-c3ccccc3OC(F)(F)F)cc(C(F)(F)F)c2[nH]1` [Compound 156, 2-(2-tert-Butyl-5-methyl-oxazol-4-yl)-5-(2-trifluoromethoxy-phenyl)-7-trifluoromethyl-1H-benzimidazole hydrochloride], the inhibition at 0.2 µM under setting [1] was 58%.

On to `Cn1nc2c(c1-c1nc3cc(-c4ccccc4Cl)ccc3[nH]1)CCCC2(C)C` [Compound 32, 3-[5-(2-Chlorophenyl)-1H-benzimidazol-2-yl]-2,7,7-trimethyl-4,5,6,7-tetrahydro-2H-indazole sodium salt], for which the IC50 came out at 21 nM.

With `Cn1nc(C(C)(C)C)c(C#N)c1-c1nc2cc(-c3ccccc3C(F)(F)F)cc(C(F)(F)F)c2[nH]1.[Na]` [Compound 149, 3-tert-Butyl-1-methyl-5-[7-trifluoromethyl-5-(2-trifluoromethyl-phenyl)-1H-benzimidazol-2-yl]-1H-pyrazole-4-carbonitrile sodium salt], the concentration for half-maximal inhibition (IC50) was 3.8 nM and 5.1 nM and 3.2 nM. For the same compound, the “% Inh (%) @0.2 μM, in vitro TRP M8 Activity” value (0.2 μM test compound, individually measured values, sodium salt, 0.2 µM) is on record as 99%. Further, the inhibition at 0.2 µM (HEK293, read-out: % Inh (%) @0.2 μM, in vitro TRP M8 Activity, 0.2 μM test compound, individually measured values) came out at 100%.

On to `Cn1nc(C(C)(C)C)cc1-c1nc2cc(-c3ccccc3C#N)ccc2[nH]1` [Compound 60, 2-[2-(5-tert-Butyl-2-methyl-2H-pyrazol-3-yl)-1H-benzimidazol-5-yl]-benzonitrile trifluoroacetic acid salt], for which the IC50 is 11.9 nM.

In the case of `Cn1nc(C(C)(C)C)c(Cl)c1-c1nc2cc(-c3c(F)cccc3OC(F)(F)F)cc(C(F)(F)F)c2[nH]1` [Compound 126, 2-(5-tert-Butyl-4-chloro-2-methyl-2H-pyrazol-3-yl)-5-(2-fluoro-6-trifluoromethoxy-phenyl)-7-trifluoromethyl-1H-benzimidazole hydrochloride], the IC50 was 3.9 nM and 3.5 nM. Further, the inhibition at 0.2 µM under setting [1] stood at 99%.

In the case of `CC(C)n1nc(C(C)(C)C)cc1-c1nc2cc(-c3ccccc3OC(F)(F)F)ccc2[nH]1` [Compound 47, 2-(5-tert-Butyl-2-isopropyl-2H-pyrazol-3-yl)-5-(2-trifluoromethoxyphenyl)-1H-benzimidazole sodium salt], the IC50 was 49.6 nM.

As for `Cn1nc(C2CCC2)cc1-c1nc2cc(-c3ccccc3C(F)(F)F)ccc2[nH]1` [Compound 37, 2-(5-Cyclobutyl-2-methyl-2H-pyrazol-3-yl)-5-(2-trifluoromethyl-phenyl)-1H-benzimidazole sodium salt], the IC50 stood at 55.9 nM.

As to `CC(C)c1cc(-c2nc3cc(-c4ccccc4OC(F)(F)F)ccc3[nH]2)on1` [Compound 5, 2-(3-Isopropylisoxazol-5-yl)-5-(2-trifluoromethoxyphenyl)-1H-benzimidazole sodium salt], the IC50 is 22.5 nM.

On to `Cn1nc(C(C)(C)C)cc1-c1nc2cc(-c3ccccc3OC(F)F)ccc2[nH]1` [Compound 81, 2-(5-tert-Butyl-2-methyl-2H-pyrazol-3-yl)-5-(2-difluoromethoxyphenyl)-1H-benzimidazole hydrochloride], for which the IC50 is 2 nM and 7 nM.

For the compound `CC(C)(C)c1cc(-c2nc3cc(-c4ccccc4OC(F)(F)F)ccc3[nH]2)n(Cc2ccccc2)n1` [Compound 49, 2-(5-tert-Butyl-2-benzyl-2H-pyrazol-3-yl)-5-(2-trifluoromethoxyphenyl)-1H-benzimidazole sodium salt], the IC50 was 42.3 nM.

Take `Cc1c(C(C)(C)C)noc1-c1nc2cc(-c3ccccc3F)ccc2[nH]1` [Compound 106, 2-(3-tert-Butyl-4-methyl-isoxazol-5-yl)-5-(2-fluoro-phenyl)-1H-benzimidazole hydrochloride]: the IC50 amounted to 21.8 nM.
